{"source": "paper PMC9276671", "about": "“A first-in-human Phase I dose-escalation trial of the novel therapeutic peptide, ALM201, demonstrates a favourable safety profile in unselected patients with ovarian cancer and other advanced solid tumours” (British Journal of Cancer, 2022)", "key": {"[1]": {"conditions": "Dog, 5mg/kg SC, male animals; ref Investigator brochure (IB); cited from earlier work"}, "[2]": {"experiment": "Safety and tolerability: adverse events and DLT (CTCAE v4.03)", "assay_type": "in vivo", "procedure": "Eligible participants were enrolled in sequential cohorts treated with a subcutaneous (SC) injection of ALM201, with close monitoring for safety and dose-limiting toxicities (DLTs). Dose levels were not weight-adjusted, and the starting dose for the study was 10 mg ALM201 given on days 1–5, 8–12 and 15–19 every 21 days, i.e., weekday dosing to be given continuously. […] Every new dose cohort was evaluated for the occurrence of a DLT during treatment cycle 1.\nThis study commenced with an accelerated dose-escalation design, then switched to a conventional algorithm (3 + 3 patients per dose level) to identify the maximum tolerated dose (MTD), escalating on observation of 0/3 or 1/6 DLTs, and de-escalating if two or more patients with DLTs were encountered.\nSafety assessments included physical examination, vital signs, biochemistry and haematology laboratory screens, plus immunogenicity testing. Safety evaluations were conducted weekly during each treatment cycle, with DLT assessed during cycle one only. All events and suspected DLTs were graded according to the Common Toxicity Criteria for Adverse Events (CTCAE), version 4.03."}, "advanced solid tumours": {"test_system": "advanced solid tumours", "experiment": "Tumour response by RECIST 1.1", "assay_type": "in vivo, human", "procedure": "Tumour assessment by imaging (CT scan or MRI scan as appropriate for tumour type) was assessed in all patients at initial screening and after every two cycles of treatment (i.e., every 6 weeks) during cycles 1–8 (i.e., first 24 weeks), and then after every four cycles of treatment (i.e., every 12 weeks) from cycle nine onwards. Scans were reported according to RECIST version 1.1."}, "[3]": {"conditions": "Rat, 5mg/kg SC, male animals; ref Investigator brochure (IB); cited from earlier work"}, "tubulin": {"test_system": "tubulin", "set-up": "method as in Investigator brochure (IB)", "conditions": "ref Investigator brochure (IB), read-out: Tubulin polymerisation IC50, cited from earlier work"}, "[4]": {"test_system": "angiogenesis and cell migration and invasion", "conditions": "cited from earlier work", "source_text": "Early investigations into the mechanism of action for ALM201 reported that the peptide is internalised into CD44-expressing cells and targets microtubules inhibiting migration and invasion in cancer and endothelial cells, similar to vascular disrupting agents. However, it was unclear if this was the principal mechanism of inhibiting angiogenesis or if other factors, such as inhibiting endothelial cell migration and inva ..."}, "[5]": {"experiment": "Urinary excretion of unchanged ALM201 (LC-MS/MS)", "assay_type": "in vivo", "conditions": "human, sc, patients with positive urine concentrations, urine collected over 6 h after dosing, day 1 cycle 1, read-out: Amount excreted in the urine, % of the administered dose, mean (±SD)"}, "xenograft": {"test_system": "xenograft", "conditions": "rat xenograft model, 3 mg/kg; ref Investigator brochure (IB); cited from earlier work", "procedure": "page 41: Almac Discovery Confidential 1.5 Rationale for Dose Selection Based on GLP, 28-day, repeat dose toxicology studies in the dog and rat, the NOAEL for ALM201 was not defined at the maximum dose evaluated of 50 mg/kgxiv. Therefore, based on standard allometric scaling based on the FDA guidelines (FDA, 2005 ), it is predicted that a human equivalent dose (HED) range of 8–28 mg/kg could be given without any drug-related adverse effects. Assuming a starting dose calculation based on a 10-fold safety margin in the most conservative model (the rat); the starting dose would be 0.8 mg/kg. Due t ..."}, "HMEC-1 cells": {"test_system": "HMEC-1 cells", "conditions": "same concentration range, range of growth factors, ref Investigator brochure (IB); cited from earlier work", "source_text": "(§1) ALM201 also had no effect on cytok ..."}, "HMEC-1": {"test_system": "HMEC-1", "conditions": "protocol Table 3; ref Investigator brochure (IB); read-out: Tube formation IC50; cited from earlier work", "source_text": "as §1"}, "proliferation": {"test_system": "proliferation", "conditions": "protocol Table 3; ref Investigator brochure (IB); cited from earlier work", "source_text": "as §1"}, "[6]": {"test_system": "invasion stimulated by VEGF, EGF, FGF, PFGF and FCS", "conditions": "10^-9 M (exponent printed displaced), ref Investigator brochure (IB); cited from earlier work", "source_text": "as §1"}, "rat aorta": {"test_system": "rat aorta", "conditions": "ex vivo rat aorta in Matrigel, 7-day period, depending on the parameter assessed; ref Investigator brochure (IB); read-out: IC50 for tubule out-growth parameters; cited from earlier work", "source_text": "as §1"}, "cell viability": {"test_system": "cell viability", "conditions": "protocol Table 2; ref Investigator brochure (IB); cited from earlier work", "source_text": "as §1"}, "cell cycle": {"test_system": "cell cycle", "conditions": "protocol Table 2 (IC50 (nM)); ref Investigator brochure (IB); cited from earlier work", "source_text": "as §1"}, "[7]": {"test_system": "DU145 and HT29 xenografts", "conditions": "3.0 mg/kg/day and 0.3 mg/kg/day, 14-day period, BALB-c SCID mouse, ref Investigator brochure (IB); cited from earlier work", "procedure": "In vivo studies using a BALB-c SCID mouse xenograft model with DU145 and HT29 cell-lines, where the small tumours can be directly examined in situ using confocal and standard microscopy have shown that administration of ALM201 inhibits a range of markers of new blood vessel formation. Tumours were typically 1-2 mm at baseline and assessments taken over a 14-day period. Dose levels of 3.0 mg/kg/d ..."}}, "note": "Read-outs that look alike come from different tables or passages of the source. No end group written: not given here.", "data": [{"sequence": "IRQQPRDPPTETLELEVSPDPAS [ALM201]", "values": [{"measurement": "AUC24", "setting": "[1]", "result": 7300, "unit": "ng·h/mL"}, {"measurement": "Cmax", "setting": "[1]", "result": 2030, "unit": "ng/mL"}, {"measurement": "Half-life", "setting": "[1]", "result": 144, "unit": "min"}, {"measurement": "Tmax", "setting": "[1]", "result": 60, "unit": "min"}, {"measurement": "Maximum tolerated dose (MTD)", "setting": "[2]; SC weekday doses of up to 300 mg", "result": "not reached"}, {"measurement": "CTCAE grade 4-related toxicities", "setting": "[2]; all dose levels", "result": "no CTCAE grade 4-related toxicities"}, {"measurement": "Thrombotic events, number of patients", "setting": "[2]; cohort 8 (100 mg) and cohort 1 (10 mg)", "result": "two"}, {"measurement": "Dose-limiting toxicities (DLTs)", "setting": "[2]; cycle 1, 10-300 mg SC", "result": "No DLTs"}, {"measurement": "Abdominal wall bruising, causality", "setting": "[2]; in vivo", "result": "Definite"}, {"measurement": "Anorexia, causality", "setting": "[2]; in vivo", "result": "Possible"}, {"measurement": "Arthralgia, causality", "setting": "[2]; in vivo", "result": "Possible"}, {"measurement": "Blurred vision, causality", "setting": "[2]; in vivo", "result": "Probable"}, {"measurement": "Depression, causality", "setting": "[2]; in vivo", "result": "Possible"}, {"measurement": "Diarrhoea, causality", "setting": "[2]; in vivo", "result": "Possible"}, {"measurement": "Fatigue, causality", "setting": "[2]; in vivo", "result": "Possible"}, {"measurement": "Headache, causality", "setting": "[2]; in vivo", "result": "Possible"}, {"measurement": "Hot flushes, causality", "setting": "[2]; in vivo", "result": "Possible"}, {"measurement": "Injection-site erythema, causality", "setting": "[2]; in vivo", "result": "Definite"}, {"measurement": "Injection-site immune reaction, causality", "setting": "[2]; in vivo", "result": "Definite"}, {"measurement": "Injection-site pain, causality", "setting": "[2]; in vivo", "result": "Definite"}, {"measurement": "Nausea, causality", "setting": "[2]; in vivo", "result": "Possible"}, {"measurement": "Oral candidiasis, causality", "setting": "[2]; in vivo", "result": "Possible"}, {"measurement": "Pedal oedema, causality", "setting": "[2]; in vivo", "result": "Possible"}, {"measurement": "Pruritus, causality", "setting": "[2]; in vivo", "result": "Definite"}, {"measurement": "Pulmonary embolus, causality", "setting": "[2]; in vivo", "result": "Possible"}, {"measurement": "Pyrexia, causality", "setting": "[2]; in vivo", "result": "Possible"}, {"measurement": "Urinary tract infection, causality", "setting": "[2]; in vivo", "result": "Possible"}, {"measurement": "Venous thrombus, causality", "setting": "[2]; in vivo", "result": "Possible"}, {"measurement": "Vomiting, causality", "setting": "[2]; in vivo", "result": "Possible"}, {"measurement": "Stable disease / disease control rate", "setting": "advanced solid tumours; 7/20 patients, stable disease for up to four cycles", "result": 35, "unit": "%"}, {"measurement": "Disease progression", "setting": "advanced solid tumours; 12 of 20 patients", "result": 60, "unit": "%"}, {"measurement": "Partial or complete responses", "setting": "advanced solid tumours; all patients", "result": "No partial or complete responses"}, {"measurement": "Patients with SD until the end of cycle 4", "setting": "advanced solid tumours; in vivo", "result": "Three"}, {"measurement": "AUC24", "setting": "[3]", "result": 4320, "unit": "ng·h/mL"}, {"measurement": "Cmax", "setting": "[3]", "result": 3400, "unit": "ng/mL"}, {"measurement": "Half-life", "setting": "[3]", "result": 36, "unit": "min"}, {"measurement": "Tmax", "setting": "[3]", "result": 30, "unit": "min"}, {"measurement": "IC50", "setting": "tubulin; protocol Table 2", "result": 0.1, "unit": "nM"}, {"measurement": "IC50", "setting": "tubulin; protocol Table 3", "result": 0.11, "unit": "nM"}, {"measurement": "Activity in standard in vitro and ex vivo assays of angiogenesis, cell migration and invasion", "setting": "[4]", "result": "low picomolar activity"}, {"measurement": "dose excreted", "setting": "[5]", "result": 0.074, "unit": "%"}, {"measurement": "Anti-tumour activity", "setting": "xenograft", "result": "significant anti-tumour"}, {"measurement": "Effect on cell proliferation or cell cycle", "setting": "HMEC-1 cells", "result": "no effect"}, {"measurement": "IC50", "setting": "HMEC-1", "result": 0.082, "unit": "nM"}, {"measurement": "Proliferation IC50", "setting": "proliferation", "result": "No effect"}, {"measurement": "Invasion", "setting": "[6]", "result": "inhibit invasion"}, {"measurement": "IC50", "setting": "rat aorta", "result": "0.005 to 0.02", "unit": "nM"}, {"measurement": "Cell viability IC50", "setting": "cell viability", "result": "No effect"}, {"measurement": "Cell cycle arrest", "setting": "cell cycle", "result": "No effect"}, {"measurement": "Average vessel diameter, average segment length and vessel branch number", "setting": "[7]", "result": "significant decreases"}]}]}
